In US8569292B2, “Cyclic inhibitors of 11β-hydroxysteroid dehydrogenase 1” (Vitae Pharmaceuticals, Inc., priority 2008, dated 2013):

Experiments:
CYP3A4 = CYP3A4 (Homo sapiens, UniProt P08684); experiment: Biological Test Example 6: CYP3A4 inhibition (erythromycin N-demethylation); type: in vitro ADME
CYP2C9 = target: T1, CYP2C9 (Homo sapiens, UniProt P11712); experiment: Biological Test Example 7: CYP2C9 inhibition (naproxen O-demethylation); type: in vitro ADME
T1 construct: purchased Invitrogen 2859; host or cells: insect cells infected with baculovirus (microsomes)
T1 sequence (P11712 whole entry): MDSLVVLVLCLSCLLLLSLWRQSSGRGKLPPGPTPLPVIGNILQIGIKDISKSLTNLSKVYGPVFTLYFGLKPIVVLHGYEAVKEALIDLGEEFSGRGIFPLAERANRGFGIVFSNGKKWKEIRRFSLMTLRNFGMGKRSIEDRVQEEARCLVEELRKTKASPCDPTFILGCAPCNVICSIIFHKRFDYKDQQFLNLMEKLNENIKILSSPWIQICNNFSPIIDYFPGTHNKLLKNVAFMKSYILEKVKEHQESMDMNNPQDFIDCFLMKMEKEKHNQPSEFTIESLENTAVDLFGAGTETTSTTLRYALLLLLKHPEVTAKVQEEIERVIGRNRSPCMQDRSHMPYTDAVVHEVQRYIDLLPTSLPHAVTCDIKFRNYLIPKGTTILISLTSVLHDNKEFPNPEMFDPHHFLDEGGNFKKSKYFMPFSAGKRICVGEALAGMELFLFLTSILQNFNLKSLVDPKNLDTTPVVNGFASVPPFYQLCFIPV

CYP2C19 = CYP2C19 (Homo sapiens, UniProt P33261); experiment: Biological Test Example 8: CYP2C19 inhibition (diazepam N-demethylation); type: in vitro ADME
CYP2C19, sequence (P33261 whole entry): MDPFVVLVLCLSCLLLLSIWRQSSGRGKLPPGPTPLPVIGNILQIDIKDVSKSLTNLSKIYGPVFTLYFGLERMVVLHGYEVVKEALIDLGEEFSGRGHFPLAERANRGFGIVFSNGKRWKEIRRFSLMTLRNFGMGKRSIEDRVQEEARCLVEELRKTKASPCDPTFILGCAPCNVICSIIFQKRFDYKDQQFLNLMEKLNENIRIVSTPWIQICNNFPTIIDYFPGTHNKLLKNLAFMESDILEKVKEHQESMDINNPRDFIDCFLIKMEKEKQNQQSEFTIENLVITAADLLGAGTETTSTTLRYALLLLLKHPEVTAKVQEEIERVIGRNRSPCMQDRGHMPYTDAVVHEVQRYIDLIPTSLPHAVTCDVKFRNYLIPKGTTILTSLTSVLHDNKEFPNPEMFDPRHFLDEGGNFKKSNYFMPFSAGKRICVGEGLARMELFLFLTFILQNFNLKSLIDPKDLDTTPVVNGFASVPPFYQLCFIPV

11β-HSD1 [1] = target: T2, 11β-HSD1 (Homo sapiens, UniProt P28845); experiment: biochemical; conditions: for inhibition at 0.1 µM: read-out: Average % inhibition at 100 nM
T2 sequence (P28845 whole entry): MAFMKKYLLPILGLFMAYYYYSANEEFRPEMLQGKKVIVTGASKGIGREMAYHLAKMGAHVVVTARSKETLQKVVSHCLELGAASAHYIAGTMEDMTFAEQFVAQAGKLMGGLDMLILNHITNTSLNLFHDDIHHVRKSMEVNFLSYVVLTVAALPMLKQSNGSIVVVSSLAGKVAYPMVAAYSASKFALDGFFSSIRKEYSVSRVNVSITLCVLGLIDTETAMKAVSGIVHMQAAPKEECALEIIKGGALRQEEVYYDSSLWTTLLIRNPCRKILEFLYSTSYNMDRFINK

11β-HSD1 [2] = target: T2, 11β-HSD1; experiment: Biological Test Example 4: microsomal 11β-HSD1 in the presence of 50% human plasma; conditions: for Shift: IC50 in Test Example 4 divided by IC50 in Test Example 1
[3] = Biological Test Example 1 IC50 (nM)
[4] = IC50 Range, Biological Test Example 1

CYP3A4, sequence (P08684 whole entry): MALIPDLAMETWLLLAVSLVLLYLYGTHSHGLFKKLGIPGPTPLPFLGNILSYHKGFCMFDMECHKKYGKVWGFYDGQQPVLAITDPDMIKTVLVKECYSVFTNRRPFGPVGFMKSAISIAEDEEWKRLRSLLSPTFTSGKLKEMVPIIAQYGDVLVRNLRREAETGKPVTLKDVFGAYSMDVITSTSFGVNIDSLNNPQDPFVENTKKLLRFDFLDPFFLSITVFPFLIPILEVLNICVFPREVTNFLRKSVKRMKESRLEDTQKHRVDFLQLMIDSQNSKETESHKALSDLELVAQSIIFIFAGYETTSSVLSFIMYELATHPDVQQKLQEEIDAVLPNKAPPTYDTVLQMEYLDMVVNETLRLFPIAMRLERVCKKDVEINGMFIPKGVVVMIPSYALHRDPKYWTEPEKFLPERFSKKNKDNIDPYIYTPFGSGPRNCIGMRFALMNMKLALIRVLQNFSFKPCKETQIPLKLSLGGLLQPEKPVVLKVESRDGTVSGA

SMILES	IC50 (CYP3A4) [µM]	IC50 (CYP2C9) [µM]	IC50 (CYP2C19) [µM]	IC50 (11β-HSD1 [1]; [3]) [nM]	IC50 (11β-HSD1 [1]; [4]) [nM]	inhibition at 0.1 µM (11β-HSD1 [1]) [%]	IC50 (11β-HSD1 [2]) [µM]	Shift (11β-HSD1 [2])
C[C@@H](c1ccc(-c2ccc(C(=O)NC(C)(C)C)nn2)cc1)N1CC[C@](CC(C)(C)C#N)(c2ccccc2)OC1=O [EXAMPLE 9, N-tert-butyl-6-(4-((S)-1-((R)-6-(2-cyano-2-methylpropyl)-2-oxo-6-phenyl-1,3-oxazinan-3-yl)ethyl)phenyl)pyridazine-3-carboxamide]	48.9	> 50	0.8	1.3	< 100	92.4	0.0051	3.9
Cc1ccc(-c2ccc([C@H](C)N3CC[C@](CC(C)(C)C#N)(c4ccccc4)OC3=O)cc2)nn1 [EXAMPLE 166, 2,2-dimethyl-3-((R)-3-((S)-1-(4-(6-methylpyridazin-3-yl)phenyl)ethyl)-2-oxo-6-phenyl-1,3-oxazinan-6-yl)propanenitrile]	20.7	9	39.5	1	< 100	96.5	0.0023	2.3
C[C@@H](c1ccc(-c2ccc(C(=O)N(C)C)cn2)cc1)N1CC[C@](CC(C)(C)O)(c2ccccc2)OC1=O [EXAMPLE 156, 6-(4-((S)-1-((S)-6-(2-hydroxy-2-methylpropyl)-2-oxo-6-phenyl-1,3-oxazinan-3-yl)ethyl)phenyl)-N,N-dimethylnicotinamide]	> 50	> 50	47.6	1.1	< 100	96.4	0.0101	
Cc1nccc(-c2ccc([C@H](C)N3CC[C@](CC(C)(C)O)(c4ccccc4)OC3=O)cc2)n1 [EXAMPLE 135, (S)-6-(2-hydroxy-2-methylpropyl)-3-((S)-1-(4-(2-methylpyrimidin-4-yl)phenyl)ethyl)-6-phenyl-1,3-oxazinan-2-one]	22.8	44.4	35.8	1.8	< 100	97.3	0.0054	3.1
C[C@@H](c1ccc(-c2cnc(C(=O)NC(C)(C)C)nc2)cc1)N1CC[C@](CC(C)(C)O)(c2ccccc2)OC1=O [EXAMPLE 17, N-tert-butyl-5-(4-((S)-1-((S)-6-(2-hydroxy-2-methylpropyl)-2-oxo-6-phenyl-1,3-oxazinan-3-yl)ethyl)phenyl)pyrimidine-2-carboxamide]	45.3	17.8	5.9	2.2	< 100	94	0.0057	2.5
C[C@@H](c1ccc(-c2ncc(F)cn2)cc1)N1CC[C@](CC(C)(C)O)(c2ccccc2)OC1=O [EXAMPLE 13, (S)-3-((S)-1-(4-(5-fluoropyrimidin-2-yl)phenyl)ethyl)-6-(2-hydroxy-2-methylpropyl)-6-phenyl-1,3-oxazinan-2-one]	> 10	> 10	> 10	1.8	< 100	92.1	0.0105	
C[C@@H](c1ccc(-c2nc(C(=O)NC3CC3)cs2)cc1)N1CC[C@](CC(C)(C)O)(c2ccccc2)OC1=O [EXAMPLE 19, N-cyclopropyl-2-(4-((S)-1-((S)-6-(2-hydroxy-2-methylpropyl)-2-oxo-6-phenyl-1,3-oxazinan-3-yl)ethyl)phenyl)thiazole-4-carboxamide]	27.1	31.7	10.3	1.9	< 100	94.6	0.0198	10.4
C[C@@H](c1ccc(-c2ccc(C(=O)NC3CC3)nn2)cc1)N1CC[C@](CC(C)(C)O)(c2ccccc2)OC1=O [EXAMPLE 10, N-cyclopropyl-6-(4-((S)-1-((S)-6-(2-hydroxy-2-methylpropyl)-2-oxo-6-phenyl-1,3-oxazinan-3-yl)ethyl)phenyl)pyridazine-3-carboxamide]	34.9	21.2	14.5	2.5	< 100	93.6	0.0075	
C[C@@H](c1ccc(-c2cnc(C(=O)NC3CC3)nc2)cc1)N1CC[C@](CC(C)(C)C#N)(c2ccccc2)OC1=O [EXAMPLE 16, 5-(4-((S)-1-((R)-6-(2-cyano-2-methylpropyl)-2-oxo-6-phenyl-1,3-oxazinan-3-yl)ethyl)phenyl)-N-cyclopropylpyrimidine-2-carboxamide]	24.9	> 50	6.1	0.8	< 100	97.9	0.0055	6.9
Cc1ccc(-c2ccc([C@H](C)N3CC[C@](CC(C)(C)O)(c4ccc(F)cc4)OC3=O)cc2)nn1 [EXAMPLE 155, (S)-6-(4-fluorophenyl)-6-(2-hydroxy-2-methylpropyl)-3-((S)-1-(4-(6-methylpyridazin-3-yl)phenyl)ethyl)-1,3-oxazinan-2-one]	> 50	38.9	> 50	2.1	< 100	94.7	0.0064	3.0
C[C@@H](c1ccc(-c2ncc(C(=O)N(C)C)s2)cc1)N1CC[C@](CC(C)(C)O)(c2ccccc2)OC1=O [EXAMPLE 158, 2-(4-((S)-1-((S)-6-(2-hydroxy-2-methylpropyl)-2-oxo-6-phenyl-1,3-oxazinan-3-yl)ethyl)phenyl)-N,N-dimethylthiazole-5-carboxamide]	> 50	> 50	> 50	2.1	< 100	95.7	0.0129	
C[C@@H](c1ccc(-c2cnc(C(=O)NC3CC3)nc2)cc1)N1CC[C@](CC(C)(C)O)(c2ccccc2)OC1=O [EXAMPLE 15, N-cyclopropyl-5-(4-((S)-1-((S)-6-(2-hydroxy-2-methylpropyl)-2-oxo-6-phenyl-1,3-oxazinan-3-yl)ethyl)phenyl)pyrimidine-2-carboxamide]	> 50	> 50	12.5	1.7	< 100	94.1	0.0042	2.4
C[C@@H](c1ccc(-c2ccc(C(=O)NC3CC3)cn2)cc1)N1CC[C@](CC(C)(C)O)(c2ccccc2)OC1=O [EXAMPLE 161, N-cyclopropyl-6-(4-((S)-1-((S)-6-(2-hydroxy-2-methylpropyl)-2-oxo-6-phenyl-1,3-oxazinan-3-yl)ethyl)phenyl)nicotinamide]	> 50	36	10.5	1.1	< 100	95.1	0.0039	

More lines, in order of falling IC50 (CYP3A4), values ahead:

IC50 (CYP3A4) [µM]	IC50 (CYP2C9) [µM]	IC50 (CYP2C19) [µM]	IC50 (11β-HSD1 [1]; [3]) [nM]	IC50 (11β-HSD1 [1]; [4]) [nM]	inhibition at 0.1 µM (11β-HSD1 [1]) [%]	IC50 (11β-HSD1 [2]) [µM]	Shift (11β-HSD1 [2])	SMILES
19.6	19.8	24.2	0.7	< 100	96.3	0.004	5.8	C[C@@H](c1ccc(-c2ccc(C3CC3)nn2)cc1)N1CC[C@](CC(C)(C)O)(c2ccccc2)OC1=O [EXAMPLE 4, (S)-3-((S)-1-(4-(6-cyclopropylpyridazin-3-yl)phenyl)ethyl)-6-(2-hydroxy-2-methylpropyl)-6-phenyl-1,3-oxazinan-2-one]
15.9	6.9	10.9	1.6	< 100	90.3	0.0059		C[C@@H](c1ccc(-c2ccc(C(=O)NC(C)(C)C)cn2)cc1)N1CC[C@](CC(C)(C)O)(c2ccccc2)OC1=O [EXAMPLE 163, N-tert-butyl-6-(4-((S)-1-((S)-6-(2-hydroxy-2-methylpropyl)-2-oxo-6-phenyl-1,3-oxazinan-3-yl)ethyl)phenyl)nicotinamide]
11.9	10.2	9.6	1.2	< 100	98.6	0.012	9.8	Cc1cc(-c2ccc([C@H](C)N3CC[C@](CC(C)(C)O)(c4ccc(F)cc4)OC3=O)cc2)cc(C)n1 [EXAMPLE 144, (S)-3-((S)-1-(4-(2,6-dimethylpyridin-4-yl)phenyl)ethyl)-6-(4-fluorophenyl)-6-(2-hydroxy-2-methylpropyl)-1,3-oxazinan-2-one]
5.2	4.5	3.6	2.8	< 100	90	0.0181		C[C@@H](c1ccc(-c2nc(C(=O)NC(C)(C)C)cs2)cc1)N1CC[C@](CC(C)(C)O)(c2ccccc2)OC1=O [EXAMPLE 22, N-tert-butyl-2-(4-((S)-1-((S)-6-(2-hydroxy-2-methylpropyl)-2-oxo-6-phenyl-1,3-oxazinan-3-yl)ethyl)phenyl)thiazole-4-carboxamide]
2.1	2.5	3	1	< 100	96.8	0.0079	8.0	C[C@@H](c1ccc(-c2ccc(C(=O)NC(C)(C)C)cn2)cc1)N1CC[C@](CC(C)(C)C#N)(c2ccccc2)OC1=O [EXAMPLE 3, N-tert-butyl-6-(4-((S)-1-((R)-6-(2-cyano-2-methylpropyl)-2-oxo-6-phenyl-1,3-oxazinan-3-yl)ethyl)phenyl)nicotinamide]
